From patent publication US20100226966A1, “Method for transdermal controlled release drug delivery” (priority 2009, published 2010)

Experiments:
[1] = system: urinary cAMP; test: Urinary cAMP excretion after transdermal vs subcutaneous PTH delivery; format: in vivo, human (healthy, young females); settings: FIG. 15
Experimental: (§1) In this example, transdermal delivery of a PTH-based agent using a coated microprojection member was compared to conventional, subcutaneous delivery of teriparatide PTH (Forteo™). A dose-finding study was conducted with […], young females that received two treatments, separated by at least five days, according to randomly assigned sequence of 20 μg subcutaneous delivery of Forteo™ and 30 μg transdermal delivery of a PTH-based agent by coated microprojection. Bioavailability of transdermally delivered PTH was determined in 20 healthy, young females by administering two treatments, separated by at least five day, according to randomly assigned sequence of 40 μg subcutaneous delivery of Forteo™ and 30 μg transdermal delivery of a PTH-based agent by coated microprojection.
FIG. 12 further reflects a preferred pulsatile concentration profile of the PTH agent, i.e., rapid on-set and rapid off-set after reaching Cmax.

[2] = Clinical dose-finding and bioavailability study, transdermal coated microprojection vs subcutaneous Forteo, PTH plasma levels and safety; format: in vivo, human (healthy, young females)
Experimental: as §1
In the dose-finding study, two participants dropped out, eleven subjects participated and eight generated usable data. It was determined that three subjects had measurable PTH plasma levels following subcutaneous injection and eight subjects had measurable PTH plasma levels following transdermal delivery.

[3] = Water solubility of PTH; format: physicochemical; settings: at pH 5
From the text: Referring now to FIG. 10, there is shown a superposition of the mole ratios for acetic acid and the neutral form of hPTH(1-34). […] At pH 5, negligible amounts of PTH are present as PTH zero net charge (PTH 0). The PTH is also highly soluble in water at concentrations in excess of 20%. During drying and subsequent storage, the free acetic acid will evaporate inherently resulting in formation of the water insoluble PTH 0. Subsequent reconstitution in water will not allow total solubilization of PTH. Accordingly, the use of a low volatility counterion provides a solid soluble formulation of PTH as long as the pH is maintained at least 2.5 pH units, preferably 3 pH units, below the pI of PTH. Preferably, this can be achieved by providing at least about two low volatility counterions to each molecule of PTH.

[4] = Pharmacokinetics of hPTH (1-34) after IV, SC and coated microprojection array administration in hairless guinea pig; format: in vivo; settings: HGP; for dose absorbed/delivered: calculated against IV AUC

Structure (SMILES): CC[C@H](C)[C@H](NC(=O)[C@H](CCC(=O)O)NC(=O)[C@H](CO)NC(=O)[C@@H](NC(=O)[C@@H](N)CO)C(C)C)C(=O)N[C@@H](CCC(N)=O)C(=O)N[C@@H](CC(C)C)C(=O)N[C@@H](CCSC)C(=O)N[C@@H](Cc1cnc[nH]1)C(=O)N[C@@H](CC(N)=O)C(=O)N[C@@H](CC(C)C)C(=O)NCC(=O)N[C@@H](CCCCN)C(=O)N[C@@H](Cc1cnc[nH]1)C(=O)N[C@@H](CC(C)C)C(=O)N[C@@H](CC(N)=O)C(=O)N[C@@H](CO)C(=O)N[C@@H](CCSC)C(=O)N[C@@H](CCC(=O)O)C(=O)N[C@@H](CCCN=C(N)N)C(=O)N[C@H](C(=O)N[C@@H](CCC(=O)O)C(=O)N[C@@H](Cc1c[nH]c2ccccc12)C(=O)N[C@@H](CC(C)C)C(=O)N[C@@H](CCCN=C(N)N)C(=O)N[C@@H](CCCCN)C(=O)N[C@@H](CCCCN)C(=O)N[C@@H](CC(C)C)C(=O)N[C@@H](CCC(N)=O)C(=O)N[C@@H](CC(=O)O)C(=O)N[C@H](C(=O)N[C@@H](Cc1cnc[nH]1)C(=O)N[C@@H](CC(N)=O)C(=O)N[C@@H](Cc1ccccc1)C(=O)O)C(C)C)C(C)C [hPTH (1-34)]
- biological activity as evidenced by urinary cAMP excretion [1]: comparable to that following subcutaneous delivery
- subjects with measurable PTH plasma levels ([2]; bioavailability study, subcutaneous delivery 40 μg, 20 subjects completed): 15 subjects
- subjects with measurable PTH plasma levels ([2]; bioavailability study, transdermal delivery 30 μg, 20 subjects completed): 20 subjects
- subjects with measurable PTH plasma levels ([2]; dose-finding study, subcutaneous injection 20 μg, eight subjects with usable data): three
- subjects with measurable PTH plasma levels ([2]; dose-finding study, transdermal delivery 30 μg, eight subjects with usable data): eight
- solubility in water (concentration) [3]: > 20%
- Fraction dose absorbed/delivered (%) ([4]; IV, 22.5 μg): 100%
- dose absorbed/delivered ([4]; SC, 19.5 μg): 8.2 ± 2.9 µg
- Cmax ([4]; hairless, guinea pig, plasma, 22.5 ug, IV): 11.2 ng/mL
- dose absorbed/delivered ([4]; microprojection array, 40.0 μg): 6.6 ± 1.8 µg
